# Read-outs that look alike come from different tables or passages of the source. Square brackets hold non-standard residues; d marks the D form. Ends that are not written are not given here. Peptide text beside a SMILES is read from it.
# How the values were obtained:
# [1] = PK analysis of 8M2D in transgenic mice (APPSWE), plasma; conditions: mouse, in vivo, sc
# Excerpt: Pharmacokinetics (PK) of 8M2D was further analyzed with various doses at days 1 and 13 in transgenic mice (APPSWE (B6; SJL 2576 Kha; Taconic)). See Hsiao et al., Correlative memory deficits, Aβ elevation, and amyloid plaques in transgenic mice. Science 274:99-102 (1996); and Haugabook et al., Reduction of Abeta accumulation in the Tg2576 animal model of Alzheimer's disease after oral administration of the phosphatidyl-inositol kinase inhibitor wortmannin. Faseb J 15:16-18 (2001).
# [2] = Metabolic stability of peptides in fresh human plasma (LC/MS/MS); type: in vitro ADME
# Description: P8, 8M1, and 8M1D were generated according to Example 1 with purities ranging from 98.0% to 99.0%. A primary 1.00 mM stock solution was prepared in either acetonitrile or acetonitrile:water (1:1, v/v) for each peptide. A 0.200 mM working stock was made from the primary stock in acetonitrile:water (1:1, v/v), which was used for the reactions. The primary and working stock solutions were stored at −20° C. when not in use, and they were kept at room temperature for as short a time as possible when in use. Fresh human plasma were maintained by adding sodium heparin as an anticoagulant.
# The incubation procedures started when 5.00 μL of 0.2 mM (working stock solutions) of different peptides were added to 0.995 mL of fresh human plasma in a 1.7-mL snap tube. After 3, 8 and 24 hours of incubation, duplicate 50.0 μL aliquots of plasma were removed and placed into extraction tubes containing 150 μL of methanol, which served to quench any reactions, and thus incubations were ended. For each time point, the aliquotes were immediately extracted by vortex mixing and centrifugation. Resulting supernates were stored in High-Performance Liquid Chromatography (HPLC) vials and analyzed by LC/MS/MS after all samples were extracted. Valacyclovir was used as a positive control.
# LC/MS/MS analysis of the incubation solutions was conducted by initial separation of the test article peaks using chromatography prior to detection by the mass spectrometer. The LC/MS system was comprised of a HPLC coupled with a TQS-Micro or Quattro Premier (Waters, Milford, Mass.). The mobile phase was nebulized using heated nitrogen in a Z spray source/interface set to electrospray in positive ionization mode for the peptides. The ionized peptides were detected using Tandem Quadropole Mass Spectrometry (MS/MS). The data was acquired using MassLynx (Waters, Milford, Mass.).
# HPLC for the peptides and Valacyclovir control were performed with no guard columns, with a flow rate at 0.3 mL/min, with column temperature at 40° C., and autosampler temperature at 10° C. The column for peptides was MacMod ACE 2 Excel C18PFP, 100×2.1-mm, 2.0 μm, and the column for the control was Waters Atlantis T3, 150×2.1-mm, 5.0 μm. The injection loop and volumn for peptides were 50.0 μL and 20.0 μL respectively, and the ones for controls were 20.0 μL and 2.00 μL. For the Mass Spectrometer for the peptides and the Valacyclovir control, the source temperature was set to be 150° C., desolvation temperature was set to be 350° C., and polarity was set to be positive mode of electrospray ionization. Other parameters in HPLC and Mass Spectrometer are shown in Table 2.1, Table 2.2 and Table 3 below.
compound,measurement,setting,value
"CC(=O)N[C@H](CC(=O)O)C(=O)N[C@@H](CCC(=O)O)C(=O)N[C@@H](CCC(=O)O)C(=O)N[C@@H](CCC(=O)O)C(=O)N[C@@H](CC(=O)O)C(=O)N[C@@H](CCC(=O)O)C(=O)N[C@@H](CCC(=O)O)C(=O)N[C@@H](CC(C)C)C(N)=O [8M2D, Ac-dEEEDEEL-NH2] (Ac-[dD]EEEDEEL-NH2)",AUC(0-t),"[1]; 10 mg/kg, Day 1, 10 mg/kg, read-out: AUClast",12800 ng·h/mL
same,CL/F,"[1]; 10 mg/kg, Day 1, 10 mg/kg, read-out: Cl/F",13 mL/min/kg
same,Cmax,"[1]; 10 mg/kg, Day 1, 10 mg/kg, read-out: Cmax",14.4 µg/mL
same,Tmax,"[1]; 10 mg/kg, Day 1, 10 mg/kg, read-out: Tmax",0.17 h
same,Vd/F,"[1]; 10 mg/kg, Day 1, 10 mg/kg, read-out: Vz/F",8.84 L/kg
same,half-life,"[1]; 10 mg/kg, Day 1, 10 mg/kg, read-out: t1/2 (converted)",7.9 h
same,AUC(0-t),"[1]; 10 mg/kg, Day 13, 10 mg/kg, read-out: AUClast",11600 ng·h/mL
same,CL/F,"[1]; 10 mg/kg, Day 13, 10 mg/kg, read-out: Cl/F",14.1 mL/min/kg
same,Cmax,"[1]; 10 mg/kg, Day 13, 10 mg/kg, read-out: Cmax",12.4 µg/mL
same,Tmax,"[1]; 10 mg/kg, Day 13, 10 mg/kg, read-out: Tmax",0.17 h
same,Vd/F,"[1]; 10 mg/kg, Day 13, 10 mg/kg, read-out: Vz/F",10.2 L/kg
same,half-life,"[1]; 10 mg/kg, Day 13, 10 mg/kg, read-out: t1/2 (converted)",8.4 h
same,AUC(0-t),"[1]; 50 mg/kg, Day 1, 50 mg/kg, read-out: AUClast",70500 ng·h/mL
same,CL/F,"[1]; 50 mg/kg, Day 1, 50 mg/kg, read-out: Cl/F",11.8 mL/min/kg
same,Cmax,"[1]; 50 mg/kg, Day 1, 50 mg/kg, read-out: Cmax",111 µg/mL
same,Tmax,"[1]; 50 mg/kg, Day 1, 50 mg/kg, read-out: Tmax",0.17 h
same,Vd/F,"[1]; 50 mg/kg, Day 1, 50 mg/kg, read-out: Vz/F",7.59 L/kg
same,half-life,"[1]; 50 mg/kg, Day 1, 50 mg/kg, read-out: t1/2 (converted)",7.4 h
same,AUC(0-t),"[1]; 50 mg/kg, Day 13, 50 mg/kg, read-out: AUClast",49700 ng·h/mL
same,CL/F,"[1]; 50 mg/kg, Day 13, 50 mg/kg, read-out: Cl/F",12.9 mL/min/kg
same,Cmax,"[1]; 50 mg/kg, Day 13, 50 mg/kg, read-out: Cmax",73 µg/mL
same,Tmax,"[1]; 50 mg/kg, Day 13, 50 mg/kg, read-out: Tmax",0.17 h
same,Vd/F,"[1]; 50 mg/kg, Day 13, 50 mg/kg, read-out: Vz/F",148 L/kg
same,half-life,"[1]; 50 mg/kg, Day 13, 50 mg/kg, read-out: t1/2 (converted)",130 h
same,AUC(0-t),"[1]; 250 mg/kg, Day 1, 250 mg/kg, read-out: AUClast",176000 ng·h/mL
same,CL/F,"[1]; 250 mg/kg, Day 1, 250 mg/kg, read-out: Cl/F",23.6 mL/min/kg
same,Cmax,"[1]; 250 mg/kg, Day 1, 250 mg/kg, read-out: Cmax",207 µg/mL
same,Tmax,"[1]; 250 mg/kg, Day 1, 250 mg/kg, read-out: Tmax",0.17 h
same,Vd/F,"[1]; 250 mg/kg, Day 1, 250 mg/kg, read-out: Vz/F",5.84 L/kg
same,half-life,"[1]; 250 mg/kg, Day 1, 250 mg/kg, read-out: t1/2 (converted)",2.9 h
same,AUC(0-t),"[1]; 250 mg/kg, Day 1, Mean over the 10, 50 and 250 mg/kg doses (N 3), read-out: AUClast, Mean",86400 ng·h/mL
same,CL/F,"[1]; 250 mg/kg, Day 1, Mean over the 10, 50 and 250 mg/kg doses (N 3), read-out: Cl/F, Mean",16.1 mL/min/kg
same,Cmax,"[1]; 250 mg/kg, Day 1, Mean over the 10, 50 and 250 mg/kg doses (N 3), read-out: Cmax, Mean",111 µg/mL
same,Tmax,"[1]; 250 mg/kg, Day 1, Mean over the 10, 50 and 250 mg/kg doses (N 3), read-out: Tmax, Mean",0.167 h
same,Vd/F,"[1]; 250 mg/kg, Day 1, Mean over the 10, 50 and 250 mg/kg doses (N 3), read-out: Vz/F, Mean",7.42 L/kg
same,half-life,"[1]; 250 mg/kg, Day 1, Mean over the 10, 50 and 250 mg/kg doses (N 3), read-out: t1/2, Mean (converted)",6.06 h
same,AUC(0-t),"[1]; 250 mg/kg, Day 13, 250 mg/kg, read-out: AUClast",290000 ng·h/mL
same,CL/F,"[1]; 250 mg/kg, Day 13, 250 mg/kg, read-out: Cl/F",13.5 mL/min/kg
same,Cmax,"[1]; 250 mg/kg, Day 13, 250 mg/kg, read-out: Cmax",278 µg/mL
same,Tmax,"[1]; 250 mg/kg, Day 13, 250 mg/kg, read-out: Tmax",0.17 h
same,Vd/F,"[1]; 250 mg/kg, Day 13, 250 mg/kg, read-out: Vz/F",33.4 L/kg
same,half-life,"[1]; 250 mg/kg, Day 13, 250 mg/kg, read-out: t1/2 (converted)",29 h
same,AUC(0-t),"[1]; 250 mg/kg, Day 13, Mean over the 10, 50 and 250 mg/kg doses (N 3), read-out: AUClast, Mean",117000 ng·h/mL
same,CL/F,"[1]; 250 mg/kg, Day 13, Mean over the 10, 50 and 250 mg/kg doses (N 3), read-out: Cl/F, Mean",13.5 mL/min/kg
same,Cmax,"[1]; 250 mg/kg, Day 13, Mean over the 10, 50 and 250 mg/kg doses (N 3), read-out: Cmax, Mean",121 µg/mL
same,Tmax,"[1]; 250 mg/kg, Day 13, Mean over the 10, 50 and 250 mg/kg doses (N 3), read-out: Tmax, Mean",0.167 h
same,Vd/F,"[1]; 250 mg/kg, Day 13, Mean over the 10, 50 and 250 mg/kg doses (N 3), read-out: Vz/F, Mean",63.8 L/kg
same,half-life,"[1]; 250 mg/kg, Day 13, Mean over the 10, 50 and 250 mg/kg doses (N 3), read-out: t1/2, Mean (converted)",56.5 h
"DEEEDEEL-OH [P8, DEEEDEEL, reference compound]",stability in fresh human plasma (in words),[2],relatively stable
same,% Remaining,"[2]; fresh human plasma, 0 h incubation",100%
same,"remaining at 3 h, 1 µM","[2]; fresh human plasma, 3 h incubation",115%
same,"remaining at 8 h, 1 µM","[2]; fresh human plasma, 8 h incubation",99.7%
same,"remaining at 24 h, 1 µM","[2]; fresh human plasma, 24 h incubation",72%

# From patent publication US20220064214A1, “NOVEL PEPTIDES AND USES THEREOF” (CENNA BIOSCIENCES INC., priority 2019, published 2022)
